Measurements as given in ChEMBL document CHEMBL4316596, “Antimicrobial Peptides with High Proteolytic Resistance for Combating Gram-Negative Bacteria” (J Med Chem, 2019).

Tests used:
[1] = test system: Pseudomonas aeruginosa; assay: Bactericidal activity against Pseudomonas aeruginosa ATCC 27853 incubated for 4 hrs followed by culture spread on agar plates and cultured overnight; assay type: functional
[2] = test system: Pseudomonas aeruginosa; assay: Antimicrobial activity against Pseudomonas aeruginosa CICC 21625 clinical isolates after 24 hrs by NCCLS-protocol based assay; assay type: functional
[3] = test system: Escherichia coli; assay: Bactericidal activity against Escherichia coli K88 incubated for 4 hrs followed by culture spread on agar plates and cultured overnight; assay type: functional
[4] = test system: Salmonella typhimurium; assay: Antimicrobial activity against Salmonella typhimurium C7731 after 24 hrs by NCCLS-protocol based assay; assay type: functional
[5] = test system: Salmonella enterica subsp. enterica serovar Pullorum; assay: (§1) Bactericidal activity against Salmonella pullorum C7913 incubated for 4 hrs followed by culture spread on agar plates and cultured overnight; assay type: functional
[6] = test system: Pseudomonas aeruginosa; assay: Bactericidal activity against Pseudomonas aeruginosa 26305 clinical isolates incubated for 4 hrs followed by culture spread on agar plates and cultured overnight; assay type: functional
[7] = test system: Escherichia coli; assay: Bactericidal activity against Escherichia coli K99 incubated for 4 hrs followed by culture spread on agar plates and cultured overnight; assay type: functional
[8] = test system: Escherichia coli; assay: Antimicrobial activity against Escherichia coli UB1005 after 24 hrs by NCCLS-protocol based assay; assay type: functional
[9] = test system: Pseudomonas aeruginosa; assay: Antimicrobial activity against Pseudomonas aeruginosa 26305 clinical isolates after 24 hrs by NCCLS-protocol based assay; assay type: functional
[10] = test system: Pseudomonas aeruginosa; assay: Ratio of MBC against Pseudomonas aeruginosa ATCC 27853 after 26 to 60 passages to MBC against Pseudomonas aeruginosa ATCC 27853; assay type: functional, organism-based
[11] = test system: Pseudomonas aeruginosa; assay: Bactericidal activity against Pseudomonas aeruginosa CICC 21625 clinical isolates incubated for 4 hrs followed by culture spread on agar plates and cultured overnight; assay type: functional
[12] = test system: Escherichia coli; assay: Antimicrobial activity against Escherichia coli K99 after 24 hrs by NCCLS-protocol based assay; assay type: functional
[13] = test system: Klebsiella pneumoniae; assay: Bactericidal activity against Klebsiella pneumoniae incubated for 4 hrs followed by culture spread on agar plates and cultured overnight; assay type: functional
[14] = test system: Salmonella enterica subsp. enterica serovar Pullorum; assay: (§2) Antimicrobial activity against Salmonella pullorum C7913 after 24 hrs by NCCLS-protocol based assay; assay type: functional
[15] = test system: Escherichia coli; assay: Antimicrobial activity against Escherichia coli K88 after 24 hrs by NCCLS-protocol based assay; assay type: functional
[16] = test system: Escherichia coli; assay: Antimicrobial activity against Escherichia coli 078 after 24 hrs by NCCLS-protocol based assay; assay type: functional
[17] = test system: Klebsiella pneumoniae; assay: Antimicrobial activity against Klebsiella pneumoniae after 24 hrs by NCCLS-protocol based assay; assay type: functional
[18] = test system: Escherichia coli; assay: Bactericidal activity against Escherichia coli UB1005 incubated for 4 hrs followed by culture spread on agar plates and cultured overnight; assay type: functional
[19] = test system: Pseudomonas aeruginosa; assay: Bactericidal activity against Pseudomonas aeruginosa 25349 clinical isolates incubated for 4 hrs followed by culture spread on agar plates and cultured overnight; assay type: functional
[20] = test system: Salmonella typhimurium; assay: Bactericidal activity against Salmonella typhimurium ATCC 14028 incubated for 4 hrs followed by culture spread on agar plates and cultured overnight; assay type: functional
[21] = test system: Salmonella typhimurium; assay: Antimicrobial activity against Salmonella typhimurium ATCC 14028 after 24 hrs by NCCLS-protocol based assay; assay type: functional
[22] = test system: Escherichia coli; assay: Bactericidal activity against Escherichia coli 078 incubated for 4 hrs followed by culture spread on agar plates and cultured overnight; assay type: functional
[23] = test system: Escherichia coli; assay: Bactericidal activity against Escherichia coli ATCC 25922 incubated for 4 hrs followed by culture spread on agar plates and cultured overnight; assay type: functional
[24] = test system: Acinetobacter baumannii; assay: Bactericidal activity against Acinetobacter baumannii incubated for 4 hrs followed by culture spread on agar plates and cultured overnight; assay type: functional
[25] = test system: Pseudomonas aeruginosa; assay: Bactericidal activity against Pseudomonas aeruginosa CICC 21630 clinical isolates incubated for 4 hrs followed by culture spread on agar plates and cultured overnight; assay type: functional
[26] = test system: Salmonella typhimurium; assay: Bactericidal activity against Salmonella typhimurium C7731 incubated for 4 hrs followed by culture spread on agar plates and cultured overnight; assay type: functional
[27] = test system: Escherichia coli; assay: Antimicrobial activity against Escherichia coli ATCC 25922 after 24 hrs by NCCLS-protocol based assay; assay type: functional
[28] = test system: Pseudomonas aeruginosa; assay: Antimicrobial activity against Pseudomonas aeruginosa CICC 21630 clinical isolates after 24 hrs by NCCLS-protocol based assay; assay type: functional
[29] = test system: Pseudomonas aeruginosa; assay: Bactericidal activity against Pseudomonas aeruginosa PAO1 incubated for 4 hrs followed by culture spread on agar plates and cultured overnight; assay type: functional
[30] = test system: Acinetobacter baumannii; assay: Antimicrobial activity against Acinetobacter baumannii after 24 hrs by NCCLS-protocol based assay; assay type: functional
[31] = test system: Pseudomonas aeruginosa; assay: Antimicrobial activity against Pseudomonas aeruginosa PAO1 after 24 hrs by NCCLS-protocol based assay; assay type: functional
[32] = test system: Pseudomonas aeruginosa; assay: Antimicrobial activity against Pseudomonas aeruginosa 25349 clinical isolates after 24 hrs by NCCLS-protocol based assay; assay type: functional
[33] = test system: Pseudomonas aeruginosa; assay: Antimicrobial activity against Pseudomonas aeruginosa ATCC 27853 after 24 hrs by NCCLS-protocol based assay; assay type: functional
[34] = test system: Escherichia coli; assay: Bactericidal activity against Escherichia coli ATCC 25922 incubated for 4 hrs followed by culture spread on agar plates and cultured overnight in presence of MgCl2; assay type: functional; conditions: ATCC 25922, 4 h, read-out: MBC>99.9
[35] = test system: Escherichia coli; assay: Bactericidal activity against Escherichia coli ATCC 25922 incubated for 4 hrs followed by culture spread on agar plates and cultured overnight in presence of NH4Cl; assay type: functional; conditions: ATCC 25922, 4 h, read-out: MBC>99.9
[36] = as §1; assay type: functional, Salmonella enterica subsp. enterica serovar Pullorum; conditions: Salmonella enterica, C7913, 4 h; read-out: MBC>99.9
[37] = as §2; assay type: functional, Salmonella enterica subsp. enterica serovar Pullorum; conditions: Salmonella enterica, C7913, 24 h
[38] = test system: Escherichia coli; assay: Bactericidal activity against Escherichia coli ATCC 25922 incubated for 4 hrs followed by culture spread on agar plates and cultured overnight in presence of 12.5% serum albumin; assay type: functional; conditions: ATCC 25922, 4 h, read-out: MBC>99.9
[39] = test system: Escherichia coli; assay: Bactericidal activity against Escherichia coli ATCC 25922 incubated for 4 hrs followed by culture spread on agar plates and cultured overnight in presence of ZnCl2; assay type: functional; conditions: ATCC 25922, 4 h, read-out: MBC>99.9
[40] = test system: Escherichia coli; assay: Bactericidal activity against Escherichia coli ATCC 25922 incubated for 4 hrs followed by culture spread on agar plates and cultured overnight in presence of CaCl2; assay type: functional; conditions: ATCC 25922, 4 h, read-out: MBC>99.9
[41] = test system: Escherichia coli; assay: Bactericidal activity against Escherichia coli ATCC 25922 incubated for 4 hrs followed by culture spread on agar plates and cultured overnight in presence of FeCl3; assay type: functional; conditions: ATCC 25922, 4 h, read-out: MBC>99.9
[42] = test system: Escherichia coli; assay: Bactericidal activity against Escherichia coli ATCC 25922 incubated for 4 hrs followed by culture spread on agar plates and cultured overnight in presence of NaCl; assay type: functional; conditions: ATCC 25922, 4 h, read-out: MBC>99.9
[43] = test system: Escherichia coli; assay: Bactericidal activity against Escherichia coli ATCC 25922 incubated for 4 hrs followed by culture spread on agar plates and cultured overnight in presence of KCl; assay type: functional; conditions: ATCC 25922, 4 h, read-out: MBC>99.9
[44] = test system: Escherichia coli; assay: Bactericidal activity against Escherichia coli ATCC 25922 incubated for 4 hrs followed by culture spread on agar plates and cultured overnight in presence of 25% serum albumin; assay type: functional; conditions: ATCC 25922, 4 h, read-out: MBC>99.9
[45] = test system: Escherichia coli; assay: Bactericidal activity against Escherichia coli ATCC 25922 incubated for 4 hrs followed by culture spread on agar plates and cultured overnight in presence of 50% serum albumin; assay type: functional; conditions: ATCC 25922, 4 h, read-out: MBC>99.9
[46] = Salmonella enterica subsp. enterica serovar Typhimurium

GENTAMICIN
2 µM: MBC>99.9 [19] | MBC>99.9 [20, 46] | MBC>99.9 [23] | MBC>99.9 [25] | MBC>99.9 [26, 46] | MBC>99.9 [29] | MIC>95 [31] | MIC>95 [32]
0.25 µM: MBC>99.9 [3] | MBC>99.9 [7] | MIC>95 [8] | MIC>95 [12] | MIC>95 [16] | MBC>99.9 [18] | MIC>95 [30]
1 µM: MBC>99.9 [1] | MIC>95 [2] | MIC>95 [4, 46] | MBC>99.9 [5] | MBC>99.9 [11] | MIC>95 [14] | MIC>95 [21, 46] | MIC>95 [27] | MIC>95 [28] | MIC>95 [33]
32: Ratio [10]
> 64 µM: MBC>99.9 [6] | MIC>95 [9]
0.125 µM: MIC>95 [15]
0.5 µM: MBC>99.9 [13] | MIC>95 [17] | MBC>99.9 [22] | MBC>99.9 [24]

H-IKPIIKPIIKPIIKPIIKPIIKPI-NH2
> 128 µM: MBC [34] | MBC [35] | MBC [38] | MBC [39] | MBC [40] | MBC [41] | MBC [42] | MBC [43] | MBC [44] | MBC [45]
64 µM: MIC95 [37] | MIC95 ([16]; Escherichia coli, 078, 24 h) | MIC95 ([21]; Salmonella enterica, ATCC 14028, 24 h)
16 µM: MBC ([7]; K99, 4 h, read-out: MBC>99.9) | MIC95 ([8]; UB1005, 24 h) | MBC ([24]; read-out: MBC>99.9) | MIC95 ([27]; ATCC 25922, 24 h) | MIC95 [30]
4 µM: MIC95 ([15]; K88, 24 h)
> 64 µM: MBC ([1]; ATCC 27853, 4 h, read-out: MBC>99.9) | MIC95 ([2]; CICC 21625, 24 h) | MIC95 ([4]; Salmonella enterica, C7731, 24 h) | MBC [36] | MBC ([6]; Pseudomonas aeruginosa, 26305, 4 h, read-out: MBC>99.9) | MIC95 ([9]; Pseudomonas aeruginosa, 26305, 24 h) | MBC ([11]; CICC 21625, 4 h, read-out: MBC>99.9) | MBC ([13]; read-out: MBC>99.9) | MIC95 [17] | MBC ([19]; Pseudomonas aeruginosa, 25349, 4 h, read-out: MBC>99.9) | MBC ([20]; Salmonella enterica, ATCC 14028, 4 h, read-out: MBC>99.9) | MBC ([22]; Escherichia coli, 078, 4 h, read-out: MBC>99.9) | MBC ([25]; CICC 21630, 4 h, read-out: MBC>99.9) | MBC ([26]; Salmonella enterica, C7731, 4 h, read-out: MBC>99.9) | MIC95 ([28]; CICC 21630, 24 h) | MBC ([29]; PAO1, 4 h, read-out: MBC>99.9) | MIC95 ([31]; PAO1, 24 h) | MIC95 ([32]; Pseudomonas aeruginosa, 25349, 24 h) | MIC95 ([33]; ATCC 27853, 24 h)
32 µM: MBC ([18]; UB1005, 4 h, read-out: MBC>99.9) | MBC ([23]; ATCC 25922, 4 h, read-out: MBC>99.9)
8 µM: MBC ([3]; K88, 4 h, read-out: MBC>99.9) | MIC95 ([12]; K99, 24 h)
